Experimental data taken from patent publication US20250205339A1, “FORMULATION HAVING IMPROVED ABSORBABILITY OF LOW-SOLUBLE AND/OR LOW-MEMBRANE-PERMEABLE DRUG” (MEDRx Co., Ltd., priority 2022, published 2025).
In brackets after ≈: the same amount, converted by molar mass. Where two headings read alike, the source gives them in different places.

Columns and labels:
[1] = Parallel Artificial Membrane Permeation Assay (PAMPA); assay type: in vitro ADME; conditions: Examples 3 and 4, FIG. 1-3; isostearic acid-DODMA, isostearic acid-DODAP, oleic acid-DODMA (5 mM each ingredient); control PBS
Description: In this assay, VZ185 and BI-3663 were used as a drug with low solubility and/or low permeability, and isostearic acid-DODMA, isostearic acid-DODAP and oleic acid-DODMA were used as an ionic liquid. As the control, PBS was used.
Specifically, the permeability of the drugs was evaluated by Parallel Artificial Membrane Permeability Assay-Skin Kit (BioAssay Systems) according to the following procedures. • (1) Preparation of Phosphate Buffer Solution (PBS)
One tablet of Phosphate Buffered Saline Tablet (Sigma) was dissolved in 200 mL of water to prepare PBS. • (2) Preparation of Sample Solution
Also, PBS (475 μL) was mixed with 1 mg/mL of VZ185 solution (25 μL) to prepare 50 μg/mL of a drug-control solution as the control.
4% Lecithin/dodecane solution (5 μL) was then added into each donor well and allowed to stand. PBS (300 μL) was added into each acceptor well and 50 μg/mL of the drug-ionic liquid composition (200 μL) was added into each donor well, and the mixture was incubated in a thermostatic bath at 37° C. […] The sample solution of BI-3663 was prepared according to the same procedure.

[2] = cited from earlier work
[3] = system: Caco-2 cells
Description: In order to study an ionic liquid for enhancing the intestinal absorption effect of a drug with low solubility and/or low permeability, various types of ionic liquids were prepared and the permeability of a drug with low solubility and/or low permeability in compositions comprising the prepared ionic liquid and the drug was evaluated. Specifically, the permeability of a drug was evaluated by the Caco-2 cell membrane permeation assay according to the following procedures for compositions comprising VZ185, which is PROTAC, used as a model drug with low solubility and/or low permeability and each ionic liquid.
Sodium hydroxide (0.4 g) was dissolved in water (100 mL) to prepare 0.1N NaOH solution. MES (2-morpholinoethanesulfonic acid, 1.493 g) and D-glucose (2.453 g) were dissolved in HBSS (+) (free of phenol red) (600 mL), the solution was adjusted to pH 6.5 with 0.1N NaOH solution, and then HBSS (+) (free of phenol red) was further added and adjusted to 700 mL. The solution was sterilized by filtration through 0.22 μm membrane filter to prepare Transport Buffer (A).
HEPES (1.192 g), D-glucose (1.752 g) and BSA (1.25 g) were then dissolved in HBSS (+) (free of phenol red) (400 mL), the solution was adjusted to pH 7.4 with 0.1N NaOH solution, and then HBSS (+) (free of phenol red) was further added and adjusted to 500 mL. The solution was sterilized by filtration through 0.22 μm membrane filter to prepare Transport Buffer (B). • (2) Preparation of Sample Solution
VZ185 (1.5 mg) was mixed with 1% TWEEN 80 (1.5 mL) to 1 mg/ml of VZ185 solution. Each organic acid (0.05 mmol) which is an anion ingredient and each cationic lipid (0.05 mmol) which is a cation ingredient were mixed with Transport Buffer (A) (4.98 mL) to prepare an ionic liquid composition comprising 10 mM each of the ingredients.
1 mg/mL of VZ185 solution (25 μL) and the ionic liquid composition or control composition (475 μL) were mixed to prepare 50 μg/mL of a drug-ionic liquid composition or a drug-control composition. […]

[4] = system: Caco-2 cells; remark: listed apart in the source
[5] = system: Caco-2 cells; experiment: Cell membrane integrity by permeability of Lucifer Yellow; conditions: Example 1; after VZ185 permeation test with 10 mM ionic liquid or control composition (5 mM where labelled); 60 min; standard value <1%
[6] = system: Caco-2 cells; experiment: Cell membrane integrity by Trans-Epithelial Electrical Resistance (TEER); conditions: Example 1; Caco-2 monolayer exposed to VZ185 50 μg/mL with 10 mM ionic liquid or control composition (5 mM where labelled); standard value >1000Ω
[7] = system: Caco-2 cells; remark: listed apart in the source

In the case of COc1cc(C(=O)NCCOCCOCCOCCC(=O)Nc2cccc3c2C(=O)N(C2CCC(=O)NC2=O)C3=O)ccc1Nc1ncc(C(F)(F)F)c(Oc2cccc3c2C(=O)CC3)n1 (stereo not shown) [BI-3663], the “absorbability of the drug by the PAMPA with ionic liquids” value (“absorbability of the drug by the PAMPA” for short) [1] is given as “remarkably improved”, the Solubility [2] is given as under 1 µg/mL and the “absorbability of BI-3663 by use of the ionic liquids” value [3] is given as “remarkably improved”.

In the case of CC(O)C(=O)O (stereo not shown) [Lactic acid, lactic acid], the TEER ([4]; human, 10 mM) is reported as 550 Ω.

For O=C([O-])CCCCCCCNC(=O)c1ccccc1O.[Na+] [SNAC, salcaprozate sodium], the “Lucifer Yellow (%)” value [5] was 4.3% and the TEER [6] was 210 Ω.

For CCCCCCCC/C=C\CCCCCCCC(=O)[O-].[Na+] [Sodium oleate, sodium oleate], the TEER [6] was 100 Ω.

For COc1cc(-c2cn(C)c(=O)c3cnccc23)cc(OC)c1CN1CCN(CCCCCOc2cc(-c3scnc3C)ccc2CNC(=O)[C@@H]2C[C@@H](O)CN2C(=O)[C@@H](NC(=O)C2(F)CC2)C(C)(C)C)CC1 [VZ185], the “absorbability of the drug by the PAMPA” value [1] is listed as “remarkably improved”, the Solubility [2] is listed as 85 µg/mL (≈ 85.4 µM) and the “absorbability of VZ185 by use of the ionic liquids” value [3] is listed as “remarkably improved”.

For c1ccc(-c2ccc(C(c3ccccc3)n3ccnc3)cc2)cc1 (stereo not shown) [bifonazole], the “absorbability of the drug by the PAMPA” value [1] was “remarkably improved” and the “absorbability of bifonazole by use of the ionic liquid” value [3] was “remarkably improved”.

For Oleic acid-Arginine, the “Lucifer Yellow (%)” value [7] was 0.1% and the TEER [4] was 3560 Ω.

For Oleic acid-Trometamol, the “Lucifer Yellow (%)” value [7] was 0.1% and the TEER [4] was 4750 Ω.
